Drawing on patent US20160046604A1, “HETEROARYL SUBSTITUTED INDAZOLES” (BAYER PHARMA AKTIENGESELLSCHAFT, priority 2013, published 2016), this text covers IC50 for six compounds.

For experiment [1], the target named is T1, catalytic domain of human Bub1 (amino acids 704-1085) (Homo sapiens, UniProt O43683).
T1 construct: catalytic domain of human Bub1 (amino acids 704-1085); His6 (N); made in house; host or cells: Hi5 insect cells
The experiment can be described thus: Bub1 kinase assay (TR-FRET). It is filed as biochemical. On the procedure: To this end, 100-fold concentrated compound solutions (in DMSO) were previously prepared by serial dilution (1:3.4) of 2 mM stocks in a clear low volume 384-well source microtiter plate (Greiner Bio-One, Frickenhausen, Germany), from which 50 nL of compounds were transferred into a black low volume test microtiter plate from the same supplier. […] The resulting mixture (5 μL final volume) was incubated at 22° C. during 60 min., and the reaction was stopped by the addition of 5 μL of an aqueous EDTA-solution (50 mM EDTA, in 100 mM HEPES pH 7.5 and 0.2% (w/v) bovine serum albumin) which also contained the TR-FRET detection reagents (0.2 μM streptavidin-XL665 [Cisbio Bioassays, Codolet, France] and 1 nM anti-phoshoSerine antibody [Merck Millipore, cat. #35-001] and 0.4 nM LANCE EU-W1024 labeled anti-mouse IgG antibody [Perkin-Elmer, product no. AD0077, alternatively a Terbium-cryptate-labeled anti-mouse IgG antibody from Cisbio Bioassays can be used]). The stopped reaction mixture was further incubated 1 h at 22° C. in order to allow the formation of complexes between peptides and detection reagents. Subsequently, the amount of product was evaluated by measurement of the resonance energy transfer from the Eu-chelate-antibody complex recognizing the Phosphoserine residue to the streptavidin-XL665 bound to the biotin moiety of the peptide. […] IC50 values were calculated by fitting the normalized inhibition data to a 4-parameter logistic equation (Minimum, Maximum, IC50, Hill; Y=Max+(Min−Max)/(1+(X/IC50)Hill)).

The test system of experiment [2] is HeLa human cervical tumor cells. Put plainly: Proliferation assay (HeLa cell line).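 Note: crystal violet staining, absorbance at 595 nm, 0.001–10 µM test range, 4-day exposure, 0% is cell number at dosing and 100% untreated growth, IC50 from 4-parameter fit.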 The note with it: 96 h, read-out: Biological Assay 2: Proliferation assay (HeLa cell line) median IC50.
Procedure: Cultivated HeLa human cervical tumor cells (cells were ordered from ATCC CCL-2) were plated at a density of 3000 cells/well in a 96-well multititer plates in 200 microL DMEM/HAMS F12 culture medium (Biochrom F4815) supplemented with 10% fetal calf serum. After 24 hours, the cells of one plate (zero-point plate) were stained with crystal violet (see below), while the medium of the other plates was replaced by fresh culture medium (200 microL) containing the test substances in various concentrations (0 microM, as well as in the range of 0.001-10 microM; the final concentration of the solvent dimethyl sulfoxide was 0.5%). The cells were incubated for 4 days in the presence of test substances. Cell proliferation was determined by staining the cells with crystal violet: the cells were fixed by adding 20 microL/measuring point of an 11% glutaric aldehyde solution for 15 minutes at room temperature. After three washing cycles of the fixed cells with water, the plates were dried at room temperature. The cells were stained by adding 100 microL/measuring point of a 0.1% crystal violet solution (pH 3.0). After three washing cycles of the stained cells with water, the plates were dried at room temperature. The dye was dissolved by adding 100 microL/measuring point of a 10% acetic acid solution. Absorption was determined by photometry at a wavelength of 595 nm. The change of cell number, in percent, was calculated by normalization of the measured values to the absorption values of the zero-point plate (=0%) and the absorption of the untreated (0 microM) cells (=100%). The IC50 values were determined by means of a 4 parameter fit.

Where two headings read alike, the source gives them in different places.

T1 sequence (O43683 704-1085): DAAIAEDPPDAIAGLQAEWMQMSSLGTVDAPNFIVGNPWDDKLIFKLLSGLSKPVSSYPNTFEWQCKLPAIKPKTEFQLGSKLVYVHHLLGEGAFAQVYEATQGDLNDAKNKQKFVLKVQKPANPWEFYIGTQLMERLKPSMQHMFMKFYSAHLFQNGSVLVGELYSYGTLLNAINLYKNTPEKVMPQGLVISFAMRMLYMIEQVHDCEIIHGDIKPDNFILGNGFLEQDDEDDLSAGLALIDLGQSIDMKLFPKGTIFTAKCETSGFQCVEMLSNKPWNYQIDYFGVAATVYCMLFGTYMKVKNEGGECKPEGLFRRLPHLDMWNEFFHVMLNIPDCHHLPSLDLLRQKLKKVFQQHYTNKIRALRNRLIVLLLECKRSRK

In the case of `COc1cnc(-c2nn(Cc3nnc(C)o3)c3ccccc23)nc1Nc1ccncc1` [Example 2-2-14, 5-methoxy-2-{1-[(5-methyl-1,3,4-oxadiazol-2-yl)methyl]-1H-indazol-3-yl}-N-(pyridin-4-yl)pyrimidin-4-amine], the IC50 was 870 nM in experiment [1] (TR-FRET, recombinant catalytic domain of human Bub1, ATP 10 μM, peptide substrate 1 μM, 60 min at 22° C., read-out: Biological Assay 1: Bub1 kinase assay median IC50) and > 10 µM in experiment [2].

With `CCOC(=O)c1cnccc1Nc1cc(N)nc(-c2nn(Cc3c(C)noc3C)c3ccccc23)n1` [Example 2-3-1, ethyl 4-[(6-amino-2-{1-[(3,5-dimethyl-1,2-oxazol-4-yl)methyl]-1H-indazol-3-yl}pyrimidin-4-yl)amino]pyridine-3-carboxylate], the IC50 in experiment [1] is 70 nM; in experiment [2], > 10 µM.

For `Cc1noc(C)c1Cn1nc(-c2nc(N)cc(Nc3ccncc3)n2)c2ccccc21` [Example 2-3-2, 2-{1-[(3,5-dimethyl-1,2-oxazol-4-yl)methyl]-1H-indazol-3-yl}-N-(pyridin-4-yl)pyrimidine-4,6-diamine], the IC50 amounted to 16 nM in experiment [1] and 6.7 µM in experiment [2].

As to `Cc1noc(C)c1Cn1nc(-c2nc(N)cc(Nc3ccncn3)n2)c2ccccc21` [Example 2-3-3, 2-{1-[(3,5-dimethyl-1,2-oxazol-4-yl)methyl]-1H-indazol-3-yl}-N-(pyrimidin-4-yl)pyrimidine-4,6-diamine], the IC50 in experiment [1] came to 31 nM; in experiment [2], 0.65 µM.

Regarding `Cc1noc(C)c1Cn1nc(-c2nc(Nc3ccncc3)cc(Nc3ccncc3)n2)c2ccccc21` [Example 2-3-4, 2-{1-[(3,5-dimethyl-1,2-oxazol-4-yl)methyl]-1H-indazol-3-yl}-N,N′-di(pyridin-4-yl)pyrimidine-4,6-diamine], the values for the IC50 in experiment [1] and in experiment [2] were 330 nM and 4 µM, respectively.

Turning to `Cc1noc(C)c1Cn1nc(-c2nc(Nc3ccncn3)cc(Nc3ccncn3)n2)c2ccccc21` [Example 2-3-5, 2-{1-[(3,5-dimethyl-1,2-oxazol-4-yl)methyl]-1H-indazol-3-yl}-N,N′-di(pyrimidin-4-yl)pyrimidine-4,6-diamine], the IC50 in experiment [1] was 150 nM; in experiment [2], > 10 µM.
